From patent US6667336B2, “GlyT-1 inhibitors” (NPS Allelix Corp., priority 2002, dated 2003) come the findings set out here.

Molecules are shown by their SMILES. “And” between values parts separate entries of the source, which are not always exact repeats. Equal values may be shown once.

This series relates to male CD-1 mice. Description: 5 day chronic oral dosing toxicity study in mice (clinical signs). The arrangement: key to Clinical signs (observation code), Day 1, 24 hours / Clinical signs (observation code), Day 2, 24 hours / Clinical signs (observation code), Day 3, 24 hours / Clinical signs (observation code), Day 4, 24 hours / Clinical signs (observation code), Day 5, 24 hours / Clinical signs (observation code), Day 1, 4 hours / Clinical signs (observation code), Day 2, 4 hours / Clinical signs (observation code), Day 3, 4 hours / Clinical signs (observation code), Day 4, 4 hours / Clinical signs (observation code), Day 5, 4 hours: 0: Appeared Normal; 1: Activity (inc./dec.); 2: Sedation/Lethargy; 3: Piloerection; 4: Stereotypy; 5: Soft Stool; 6: Chromodacryorrhea; 7: Epistaxis; 8: Cyanosis; 9: Flaccidity; 10: Respiration; 11: Hunched Posture; 12: Enophthalmia; 13: Exophthalmia; 14: Palpabral Ptosis; 15: Loss of Righting; 16: Chromaturia; 17: Salivation; 18: Lacrimation; 19: Miosis; 20: Mydriasis; 21: Rigidity; 22: Ataxia; 23: Tremors; 24: Convulsions; 25: Catalepsy; 26: Lateral Recumbency; 27: Death. In kind it is in vivo. The conditions noted are these: 40 mg/kg/day PO, male CD-1 mice, one line per animal. The protocol:
This example illustrated a 5 day chronic oral dosing toxicity study with GlyT1 inhibitors. […] Behavioral observations (clinical signs) and body weights were recorded daily for all compounds tested. Male CD-1 mice were purchased from Charles River Labs (Kingston, N.Y.). The animals weighed between 20-25 grams upon arrival. Animals were acclimatized in a temperature/humidity (72° ±5° F./50%±5%) controlled vivarium, with a common 12 hour light/dark cycle (Lights on 0700 hrs) for 5 days prior to test. All animals were allowed food (Purina Labdiete® Rodent chow # 5001) and water (supplied by Elizabethtown Water Company) ad libitum during the acclimation period and throughout the study. On the day prior to test initiation animals were randomly assigned to groups: All animals chosen for test weighed at least 20 grams and appeared in good condition. Each animal was dosed once daily for 5 days. Animals remained on site for a 3 day recovery period following the chronic dosing period.
A stock concentration of each test compound was prepared fresh on the day of study initiation. Aliquots were diluted to the needed concentrations for daily dosing. Stock solutions were kept in a refrigerator when not in use. Each compound was dissolved in a small amount of distilled water. One equivalent of sodium hydroxide (2 N) may have been added to aid in dissolution of each test agent. Vehicle was then added quantum sufficiat to give the final volume. Final volumes were adjusted to reflect percent free base when appropriate. The vehicle used in this experiment was Hydroxypropyl-β-cyclodextrine (HPCD) Acros, lot 011849601, dissolved in distilled water to form a 10% weight/volume concentration. The pH was adjusted, using sodium hydroxide (2 N), to equal that of the test agents (usually between 8 to 10). All prepared test compounds were either in solution, and clear, or in suspension, and slightly cloudy. Suspensions were mixed immediately prior to use.
All animals were administered either test compound or vehicle Per Os (PO) via 21 gauge gavage needles, in volumes of 10.0 ml/kg. Daily body weights were used to determine individual dosing volumes. All test compounds were weighed on a Denver Instruments analytical balance (model # A-250). Animals were weighed on a top loading Ohaus portable balance model # LS2000.
Animals were assessed for overt behaviors (clinical signs) immediately following administration of test agents, then again at 4 and 24 hours. Animals were assessed for 27 separate clinical signs:
Toxicity data obtained through the assay as described above is provided in Tables 1 to 14 for Compounds Gi to Gxiv inclusive. The animals were observed immediately following administration and again at 4 hours and 24 hours. Observations are reported using the code number from the following chart: […]
`CC(C)c1ccc(-c2ccc(/C(=C/CN(C)CC(=O)O)c3ccsc3)cc2)cc1` [Compound G(i), (Z)-N-(1-(4-(4-Isopropylphenyl)phenyl)-1-(3-thienyl)prop-1-en-3-yl)sarcosine]: the “Clinical signs (observation code), Day 1, 4 hours” value (“Clinical signs … Day 1, 4 hours” for short) was determined as 0; the “Clinical signs (observation code), Day 1, 24 hours” value (shortened to “Clinical signs … Day 1, 24 hours”) came to 0; the “Clinical signs (observation code), Day 2, 4 hours” value (“Clinical signs … Day 2, 4 hours” for short) is 0; the “Clinical signs (observation code), Day 2, 24 hours” value (shortened to “Clinical signs … Day 2, 24 hours”) came to 0. Besides, the “Clinical signs (observation code), Day 3, 4 hours” value (“Clinical signs … Day 3, 4 hours” for short) was 0; the “Clinical signs (observation code), Day 3, 24 hours” value (shortened to “Clinical signs … Day 3, 24 hours”) is reported as 0; the “Clinical signs (observation code), Day 4, 4 hours” value (“Clinical signs … Day 4, 4 hours” for short) worked out at 0; the “Clinical signs (observation code), Day 4, 24 hours” value (shortened to “Clinical signs … Day 4, 24 hours”) is 0. The “Clinical signs (observation code), Day 5, 4 hours” value (“Clinical signs … Day 5, 4 hours” for short) turned out to be 0 and the “Clinical signs (observation code), Day 5, 24 hours” value (shortened to “Clinical signs … Day 5, 24 hours”) is 0.
As for `CN(C/C=C(/c1ccc(-c2ccsc2)cc1)c1ccsc1)CC(=O)O` [Compound G(ii), (Z)-N-(1-(4-(3-Thienyl)phenyl)-1-(3-thienyl)prop-1-en-3-yl)sarcosine], the “Clinical signs … Day 1, 4 hours” value came out at 0; the “Clinical signs … Day 1, 24 hours” value was 0; the “Clinical signs … Day 2, 4 hours” value was 0 (2×) and 1; the “Clinical signs … Day 2, 24 hours” value is reported as 0. The “Clinical signs … Day 3, 4 hours” value is listed as 0; the “Clinical signs … Day 3, 24 hours” value amounted to 0; the “Clinical signs … Day 4, 4 hours” value is recorded as 0; the “Clinical signs … Day 4, 24 hours” value stood at 0. The “Clinical signs … Day 5, 4 hours” value is 0 and 14; the “Clinical signs … Day 5, 24 hours” value is 0.
As for `CN(C/C=C(/c1ccc(-c2cccs2)cc1)c1ccsc1)CC(=O)O` [Compound G(iii), (Z)-N-(1-(4-(2-Thienyl)phenyl)-1-(3-thienyl)prop-1-en-3-yl)sarcosine], the “Clinical signs … Day 1, 4 hours” value is on record as 0; the “Clinical signs … Day 1, 24 hours” value amounted to 0; the “Clinical signs … Day 2, 4 hours” value is on record as 0; the “Clinical signs … Day 2, 24 hours” value is recorded as 0. In addition, the “Clinical signs … Day 3, 4 hours” value was 0; the “Clinical signs … Day 3, 24 hours” value amounted to 0; the “Clinical signs … Day 4, 4 hours” value was 14 and 0; the “Clinical signs … Day 4, 24 hours” value was determined as 0. Also, the “Clinical signs … Day 5, 4 hours” value came out at 0 and the “Clinical signs … Day 5, 24 hours” value is given as 0.
For the molecule `CN(C/C=C(/c1ccc(-c2ccco2)cc1)c1ccsc1)CC(=O)O` [Compound G(iv), (Z)-N-(1-(4-(2-Furyl)phenyl)-1-(3-thienyl)prop-1-en-3-yl)sarcosine], the “Clinical signs … Day 1, 4 hours” value was 0 and 14; the “Clinical signs … Day 1, 24 hours” value came to 0; the “Clinical signs … Day 2, 4 hours” value came out at 0; the “Clinical signs … Day 2, 24 hours” value is on record as 0. Moreover, the “Clinical signs … Day 3, 4 hours” value was 14 (2×) and 0; the “Clinical signs … Day 3, 24 hours” value is reported as 0; the “Clinical signs … Day 4, 4 hours” value is given as 0; the “Clinical signs … Day 4, 24 hours” value stood at 0. For the same molecule, the “Clinical signs … Day 5, 4 hours” value was 0 (2×) and 14; the “Clinical signs … Day 5, 24 hours” value turned out to be 0.
For the molecule `CN(C/C=C(/c1ccc(-c2ccsc2)cc1)c1cccs1)CC(=O)O` [Compound G(ix), (Z)-N-(1-(4-(3-Thienyl)phenyl)-1-(2-thienyl)prop-1-en-3-yl)sarcosine], the “Clinical signs … Day 1, 4 hours” value came out at 0; the “Clinical signs … Day 1, 24 hours” value came to 0; the “Clinical signs … Day 2, 4 hours” value is reported as 0; the “Clinical signs … Day 2, 24 hours” value was 0. Further, the “Clinical signs … Day 3, 4 hours” value was found to be 0; the “Clinical signs … Day 3, 24 hours” value was determined as 0; the “Clinical signs … Day 4, 4 hours” value is 0; the “Clinical signs … Day 4, 24 hours” value came out at 0. The “Clinical signs … Day 5, 4 hours” value is listed as 0 and the “Clinical signs … Day 5, 24 hours” value amounted to 0.
As to `COc1cccc(-c2ccc(/C(=C/CN(C)CC(=O)O)c3ccsc3)cc2)c1` [Compound G(v), (Z)-N-(1-(4-(3-Methoxyphenyl)phenyl)-1-(3-thienyl)prop-1-en-3-yl)sarcosine], the “Clinical signs … Day 1, 4 hours” value was 0; the “Clinical signs … Day 1, 24 hours” value turned out to be 0; the “Clinical signs … Day 2, 4 hours” value turned out to be 0; the “Clinical signs … Day 2, 24 hours” value was 0. Further, the “Clinical signs … Day 3, 4 hours” value is on record as 0; the “Clinical signs … Day 3, 24 hours” value is on record as 0; the “Clinical signs … Day 4, 4 hours” value was determined as 0; the “Clinical signs … Day 4, 24 hours” value is on record as 0. For the same molecule, the “Clinical signs … Day 5, 4 hours” value was found to be 0 and the “Clinical signs … Day 5, 24 hours” value amounted to 0.
For the molecule `Cc1cccc(-c2ccc(/C(=C/CN(C)CC(=O)O)c3ccsc3)cc2)c1` [Compound G(vi), (Z)-N-(1-(4-(3-Methylphenyl)phenyl)-1-(3-thienyl)prop-1-en-3-yl)sarcosine], the “Clinical signs … Day 1, 4 hours” value was found to be 0; the “Clinical signs … Day 1, 24 hours” value is listed as 0; the “Clinical signs … Day 2, 4 hours” value is listed as 0; the “Clinical signs … Day 2, 24 hours” value was found to be 0. Moreover, the “Clinical signs … Day 3, 4 hours” value is 0; the “Clinical signs … Day 3, 24 hours” value was found to be 0; the “Clinical signs … Day 4, 4 hours” value worked out at 0; the “Clinical signs … Day 4, 24 hours” value is on record as 0. In addition, the “Clinical signs … Day 5, 4 hours” value worked out at 0 and the “Clinical signs … Day 5, 24 hours” value is listed as 0.
For `CN(C/C=C(/c1ccc(-c2cccc(OC(F)(F)F)c2)cc1)c1ccsc1)CC(=O)O` [Compound G(vii), (Z)-N-(1-(4-(3-(Trifluoromethoxy)phenyl)phenyl)-1-(3-thienyl)prop-1-en-3-yl)sarcosine], the “Clinical signs … Day 1, 4 hours” value turned out to be 0; the “Clinical signs … Day 1, 24 hours” value is recorded as 0; the “Clinical signs … Day 2, 4 hours” value was determined as 0; the “Clinical signs … Day 2, 24 hours” value is given as 0. The “Clinical signs … Day 3, 4 hours” value is on record as 0; the “Clinical signs … Day 3, 24 hours” value was determined as 0; the “Clinical signs … Day 4, 4 hours” value was 0; the “Clinical signs … Day 4, 24 hours” value came to 0. For the same molecule, the “Clinical signs … Day 5, 4 hours” value was found to be 0 and the “Clinical signs … Day 5, 24 hours” value is on record as 0.
In the case of `CN(C/C=C(/c1ccc(-c2cccc(C#N)c2)cc1)c1ccsc1)CC(=O)O` [Compound G(viii), (Z)-N-(1-(4-(3-Cyanophenyl)phenyl)-1-(3-thienyl)prop-1-en-3-yl)sarcosine], the “Clinical signs … Day 1, 4 hours” value was determined as 0; the “Clinical signs … Day 1, 24 hours” value was 0; the “Clinical signs … Day 2, 4 hours” value was found to be 0; the “Clinical signs … Day 2, 24 hours” value amounted to 0. Also, the “Clinical signs … Day 3, 4 hours” value is reported as 0; the “Clinical signs … Day 3, 24 hours” value was 0; the “Clinical signs … Day 4, 4 hours” value is 0; the “Clinical signs … Day 4, 24 hours” value is listed as 0. The “Clinical signs … Day 5, 4 hours” value amounted to 0 and the “Clinical signs … Day 5, 24 hours” value stood at 0.
On to `Cc1cscc1/C(=C\CN(C)CC(=O)O)c1ccc(-c2ccsc2)cc1` [Compound G(x), (Z)-N-(1-(4-(3-Thienyl)phenyl)-1-(3-(4-methylthienyl))prop-1-en-3-yl)sarcosine], for which the “Clinical signs … Day 1, 4 hours” value is reported as 0; the “Clinical signs … Day 1, 24 hours” value is 0; the “Clinical signs … Day 2, 4 hours” value was determined as 0; the “Clinical signs … Day 2, 24 hours” value worked out at 0. Also, the “Clinical signs … Day 3, 4 hours” value turned out to be 0; the “Clinical signs … Day 3, 24 hours” value was 0; the “Clinical signs … Day 4, 4 hours” value came to 0; the “Clinical signs … Day 4, 24 hours” value is 0. Moreover, the “Clinical signs … Day 5, 4 hours” value is recorded as 0.
